Experimental data from ChEMBL document CHEMBL1649463, “Capsular type and antibiotic resistance in Streptococcus agalactiae isolates from patients, ranging from newborns to the elderly, with invasive infections” (2009).
Values after ≈ are worked out from the molar mass of the structure shown.

Tested on: Streptococcus agalactiae
Assay: Antimicrobial activity against Streptococcus agalactiae clinical isolates by agar dilution method
Assay type: functional

MIC50 [mg/L] | MIC90 [mg/L] | Compound
0.016 (≈ 0.0471 µM) | 0.031 (≈ 0.0913 µM) | CC(=N)N1CC[C@H](SC2=C(C(=O)O)N3C(=O)[C@H]([C@@H](C)O)[C@H]3C2)C1
0.031 (≈ 0.0784 µM) | 0.063 (≈ 0.159 µM) | C=CC1=C(C(=O)O)N2C(=O)[C@@H](NC(=O)/C(=N\O)c3csc(N)n3)[C@H]2SC1
0.063 (≈ 0.172 µM) | 0.125 (≈ 0.342 µM) | CC1(C)S[C@@H]2[C@H](NC(=O)[C@H](N)c3ccc(O)cc3)C(=O)N2[C@H]1C(=O)O [AMOXICILLIN]
0.125 (≈ 0.358 µM) | 0.125 (≈ 0.358 µM) | CC1(C)S[C@@H]2[C@H](NC(=O)[C@H](N)c3ccccc3)C(=O)N2[C@H]1C(=O)O [AMPICILLIN]
0.031 (≈ 0.0499 µM) | 0.031 (≈ 0.0499 µM) | CO/N=C(\C(=O)N[C@@H]1C(=O)N2C(C(=O)OCOC(=O)C(C)(C)C)=C(/C=C\c3scnc3C)CS[C@H]12)c1csc(N)n1 [CEFDITOREN PIVOXIL]
0.031 (≈ 0.0681 µM) | 0.063 (≈ 0.138 µM) | CO/N=C(\C(=O)N[C@@H]1C(=O)N2C(C(=O)O)=C(COC(C)=O)CS[C@H]12)c1csc(N)n1 [CEFOTAXIME]
0.5 (≈ 0.951 µM) | 0.5 (≈ 0.951 µM) | CN(C)CCn1nnnc1SCC1=C(C(=O)O)N2C(=O)[C@@H](NC(=O)Cc3csc(N)n3)[C@H]2SC1 [CEFOTIAM]
0.125 (≈ 0.167 µM) | ≥ 64 | CC[C@H]1OC(=O)[C@H](C)[C@@H](O[C@H]2C[C@@](C)(OC)[C@@H](O)[C@H](C)O2)[C@H](C)[C@@H](O[C@@H]2O[C@H](C)C[C@H](N(C)C)[C@H]2O)[C@](C)(OC)C[C@@H](C)C(=O)[C@H](C)[C@@H](O)[C@]1(C)O [CLARITHROMYCIN]
0.063 (≈ 0.148 µM) | ≥ 64 | CCC[C@@H]1C[C@@H](C(=O)N[C@@H]([C@H]2O[C@H](SC)[C@H](O)[C@@H](O)[C@H]2O)[C@H](C)Cl)N(C)C1 [CLINDAMYCIN]
0.032 (≈ 0.0436 µM) | ≥ 64 | CC[C@H]1OC(=O)[C@H](C)[C@@H](O[C@H]2C[C@@](C)(OC)[C@@H](O)[C@H](C)O2)[C@H](C)[C@@H](O[C@@H]2O[C@H](C)C[C@H](N(C)C)[C@H]2O)[C@](C)(O)C[C@@H](C)C(=O)[C@H](C)[C@@H](O)[C@]1(C)O [ERYTHROMYCIN]
2 | ≥ 64 | C[C@H]1COc2c(N3CCN(C)CC3)c(F)cc3c(=O)c(C(=O)O)cn1c23.C[C@H]1COc2c(N3CCN(C)CC3)c(F)cc3c(=O)c(C(=O)O)cn1c23.O [LEVOFLOXACIN]
0.063 (≈ 0.164 µM) | 0.063 (≈ 0.164 µM) | C[C@@H](O)[C@H]1C(=O)N2C(C(=O)O)=C(S[C@@H]3CN[C@H](C(=O)N(C)C)C3)[C@H](C)[C@H]12 [MEROPENEM]
0.063 (≈ 0.188 µM) | 0.063 (≈ 0.188 µM) | CC1(C)S[C@@H]2[C@H](NC(=O)Cc3ccccc3)C(=O)N2[C@H]1C(=O)O [PENICILLIN G]
